# From patent US6960614B2, “Oxygenated esters of 4-lodo phenylamino benzhydroxamic acids” (Warner-Lambert Company, priority 2000, dated 2005)
# pIC50: −log10 of the molar value.
# Tested on: MEK
# Assay: Cellular Assay for Measuring MEK Inhibition (inhibition of ERK phosphorylation in C26 cells, Western blot)
# Format: cell-based, murine
# Conditions: for % Inhibition @ 0.1 μM / % Inhibition @ 1 μM / % Inhibition @ 10 μM: ERK phosphorylation in C26 cells; for pIC50: inhibition of ERK phosphorylation in murine colon 26 (C26) carcinoma cells, determined graphically from dose response curve
# Method: The evaluation of the compounds as MEK inhibitors was performed in an assay that measures their ability to inhibit phosphorylation of MAP kinase […]) in murine colon 26 (C26) carcinoma cells. Since ERK1 and ERK2 represent the only known substrates for MEK, measurement of inhibition of ERK phosphorylation in cells provides direct readout of cellular MEK inhibition by the compounds of the invention. Briefly, the assay involves treating exponentially growing C26 cells with varying concentrations of the test compound (or vehicle control) for […] at 37° C. Cells are then rinsed free of compound/vehicle and lysed in a solution containing 70 mM NaCl, 50 mM glycerol phosphate, 10 mM HEPES, pH 7.4, 1% Triton X-100, 1 mM Na3VO4, 100 μM PMSF, 10 μM leupeptin and 10 μM pepstatin. Supernatants are then subjected to gel electrophoresis and Western blotting using a primary antibody recognizing dually phosphorylated ERK1 and ERK2. To evaluate total MAPK levels, blots were subsequently ‘stripped’ and re-probed with a 1:1 mixture of polyclonal antibodies recognizing unphosphorylated ERK1 and ERK2.
SMILES,% Inhibition @ 0.1 μM [%],% Inhibition @ 1 μM [%],pIC50,% Inhibition @ 10 μM [%]
"CC(CO)ONC(=O)c1ccc(F)c(F)c1Nc1ccc(F)cc1F (stereo not drawn) [Example 133, 2-(2,4-Difluoro-phenylamino)-3,4-difluoro-N-(2-hydroxy-1-methyl-ethoxy)-benzamide]",0,26.4,–,–
"COCCONC(=O)c1ccc(F)c(F)c1Nc1ccc(I)cc1Cl [Example 134, 2-(2-Chloro-4-iodo-phenylamino)-3,4-difluoro-N-(2-methoxy-ethoxy)-benzamide]",–,–,6.43,–
"COCCONC(=O)c1cc(F)c(F)c(F)c1Nc1ccc(I)cc1Cl [Example 135, 2-(2-Chloro-4-iodo-phenylamino)-3,4,5-trifluoro-N-(2-methoxy-ethoxy)-benzamide]",0,41.4,–,–
"COCCONC(=O)c1ccc(F)c(F)c1Nc1ccc(I)cc1C [Example 136, 3,4-Difluoro-2-(4-iodo-2-methyl-phenylamino)-N-(2-methoxy-ethoxy)-benzamide]",–,–,6.60,–
"COCCONC(=O)c1cc(Br)c(F)c(F)c1Nc1ccc(I)cc1C [Example 137, 5-Bromo-3,4-difluoro-2-(4-iodo-2-methyl-phenylamino)-N-(2-methoxy-ethoxy)-benzamide]",–,–,7.00,–
"COCCONC(=O)c1cc(F)c(F)c(F)c1Nc1ccc(I)cc1C [Example 138, 3,4,5-Trifluoro-2-(4-iodo-2-methyl-phenylamino)-N-(2-methoxy-ethoxy)-benzamide]",0,19.6,–,–
"COCCONC(=O)c1cc(Br)c(F)c(F)c1Nc1ccc(I)cc1Cl [Example 139, 5-Bromo-2-(2-chloro-4-iodo-phenylamino)-3,4-difluoro-N-(2-methoxy-ethoxy)-benzamide]",–,–,6.44,–
"COCCONC(=O)c1cc(Cl)c(F)c(F)c1Nc1ccc(I)cc1Cl [Example 140, 5-Chloro-2-(2-chloro-4-iodo-phenylamino)-3,4-difluoro-N-(2-methoxy-ethoxy)-benzamide]",–,–,6.35,–
"COCCONC(=O)c1cc(Cl)c(F)c(F)c1Nc1ccc(I)cc1C [Example 141, 5-Chloro-3,4-difluoro-2-(4-iodo-2-methyl-phenylamino)-N-(2-methoxy-ethoxy)-benzamide]",38,92.7,–,–
"COCCONC(=O)c1cc(Cl)c(F)c(F)c1Nc1ccc(I)cc1F [Example 142, 5-Chloro-3,4-difluoro-2-(2-fluoro-4-iodo-phenylamino)-N-(2-methoxy-ethoxy)-benzamide]",31,91.4,–,–
"O=C(NOCC(O)CN1CCOCC1)c1ccc(F)c(F)c1Nc1ccc(I)cc1Cl (stereo not drawn) [Example 143, 2-(2-Chloro-4-iodo-phenylamino)-3,4-difluoro-N-(2-hydroxy-3-morpholin-4-yl-propoxy)-benzamide]",–,–,6.22,–
"O=C(NOCC(O)CN1CCOCC1)c1cc(F)c(F)c(F)c1Nc1ccc(I)cc1Cl (stereo not drawn) [Example 145, 2-(2-Chloro-4-iodo-phenylamino)-3,4,5-trifluoro-N-(2-hydroxy-3-morpholin-4-yl-propoxy)-benzamide]",–,–,7.00,–
"Cc1cc(I)ccc1Nc1c(C(=O)NOCC(O)CN2CCOCC2)cc(F)c(F)c1F (stereo not drawn) [Example 146, 3,4,5-Trifluoro-N-(2-hydroxy-3-morpholin-4-yl-propoxy)-2-(4-iodo-2-methyl-phenylamino)-benzamide]",0,40.5,–,–
"Cc1cc(I)ccc1Nc1c(C(=O)NOCC(O)CN2CCOCC2)cc(Br)c(F)c1F (stereo not drawn) [Example 147, 5-Bromo-3,4-difluoro-N-(2-hydroxy-3-morpholin-4-yl-propoxy)-2-(4-iodo-2-methyl-phenylamino)-benzamide]",–,–,7.00,–
"Cc1cc(I)ccc1Nc1c(C(=O)NOCC(O)CN2CCOCC2)ccc(F)c1F (stereo not drawn) [Example 148, 3,4-Difluoro-N-(2-hydroxy-3-morpholin-4-yl-propoxy)-2-(4-iodo-2-methyl-phenylamino)-benzamide]",–,–,6.64,–
"O=C(NOCC(O)CN1CCOCC1)c1cc(Cl)c(F)c(F)c1Nc1ccc(I)cc1Cl (stereo not drawn) [Example 149, 5-Chloro-2-(2-chloro-4-iodo-phenylamino)-3,4-difluoro-N-(2-hydroxy-3-morpholin-4-yl-propoxy)-benzamide]",–,–,6.77,–
"Cc1cc(I)ccc1Nc1c(C(=O)NOCC(O)CN2CCOCC2)cc(Cl)c(F)c1F (stereo not drawn) [Example 150, 5-Chloro-3,4-difluoro-N-(2-hydroxy-3-morpholin-4-yl-propoxy)-2-(4-iodo-2-methyl-phenylamino)-benzamide]",49,99.9,–,–
"O=C(NOCC(O)CN1CCOCC1)c1ccc(F)c(F)c1Nc1ccc(I)cc1F (stereo not drawn) [Example 151, 3,4-Difluoro-2-(2-fluoro-4-iodo-phenylamino)-N-(2-hydroxy-3-morpholin-4-yl-propoxy)-benzamide]",–,–,7.39,–

SMILES,% Inhibition @ 0.1 μM [%],% Inhibition @ 1 μM [%],pIC50,% Inhibition @ 10 μM [%]
"O=C(NOCC(O)CN1CCOCC1)c1cc(Cl)c(F)c(F)c1Nc1ccc(I)cc1F (stereo not drawn) [Example 152, 5-Chloro-3,4-difluoro-2-(2-fluoro-4-iodo-phenylamino)-N-(2-hydroxy-3-morpholin-4-yl-propoxy)-benzamide]",59.2,90.3,–,–
"O=C(NOCC(O)CN1CCOCC1)c1cc(F)c(F)cc1Nc1ccc(I)cc1F (stereo not drawn) [Example 153, 4,5-Difluoro-2-(2-fluoro-4-iodo-phenylamino)-N-(2-hydroxy-3-morpholin-4-yl-propoxy)-benzamide]",13.9,89.5,–,–
"O=C(NOCC(O)CN1CCOCC1)c1cc(Cl)c(F)c(F)c1Nc1ccc(F)cc1F (stereo not drawn) [Example 154, 5-Chloro-2-(2,4-difluoro-phenylamino)-3,4-difluoro-N-(2-hydroxy-3-morpholin-4-yl-propoxy)-benzamide]",–,8.9,–,51
"O=C(NOCC(O)CN1CCOCC1)c1ccc(F)c(F)c1Nc1ccc(Cl)cc1F (stereo not drawn) [Example 155, 2-(4-Chloro-2-fluoro-phenylamino)-3,4-difluoro-N-(2-hydroxy-3-morpholin-4-yl-propoxy)-benzamide]",0,30.9,–,–
"CC(O)CONC(=O)c1ccc(F)c(F)c1Nc1ccc(I)cc1Cl (stereo not drawn) [Example 156, 2-(2-Chloro-4-iodo-phenylamino)-3,4-difluoro-N-(2-hydroxy-propoxy)-benzamide]",–,–,7.96,–
"Cc1cc(I)ccc1Nc1c(C(=O)NOCC(C)O)cc(F)c(F)c1F (stereo not drawn) [Example 157, 3,4,5-Trifluoro-N-(2-hydroxy-propoxy)-2-(4-iodo-2-methyl-phenylamino)-benzamide]",50.7,91.5,–,–
"Cc1cc(I)ccc1Nc1c(C(=O)NOCC(C)O)cc(Br)c(F)c1F (stereo not drawn) [Example 159, 5-Bromo-3,4-difluoro-N-(2-hydroxy-propoxy)-2-(4-iodo-2-methyl-phenylamino)-benzamide]",88.4,100,–,–
"CC(O)CONC(=O)c1cc(F)c(F)c(F)c1Nc1ccc(I)cc1Cl (stereo not drawn) [Example 160, 2-(2-Chloro-4-iodo-phenylamino)-3,4,5-trifluoro-N-(2-hydroxy-propoxy)-benzamide]",71.9,96.8,–,–
"CC(O)CONC(=O)c1cc(Cl)c(F)c(F)c1Nc1ccc(I)cc1Cl (stereo not drawn) [Example 161, 5-Chloro-2-(2-chloro-4-iodo-phenylamino)-3,4-difluoro-N-(2-hydroxy-propoxy)-benzamide]",–,–,7.82,–
"Cc1cc(I)ccc1Nc1c(C(=O)NOCC(C)O)ccc(F)c1F (stereo not drawn) [Example 162, 3,4-Difluoro-N-(2-hydroxy-propoxy)-2-(4-iodo-2-methyl-phenylamino)-benzamide]",–,–,8.11,–
"Cc1cc(I)ccc1Nc1c(C(=O)NOCC(C)O)cc(Cl)c(F)c1F (stereo not drawn) [Example 163, 5-Chloro-3,4-difluoro-N-(2-hydroxy-propoxy)-2-(4-iodo-2-methyl-phenylamino)-benzamide]",88.9,95.1,–,–
"CC(O)CONC(=O)c1ccc(F)c(F)c1Nc1ccc(I)cc1F (stereo not drawn) [Example 164, 3,4-Difluoro-2-(2-fluoro-4-iodo-phenylamino)-N-(2-hydroxy-propoxy)-benzamide]",–,–,8.52,–
"CC(O)CONC(=O)c1cc(Cl)c(F)c(F)c1Nc1ccc(I)cc1F (stereo not drawn) [Example 165, 5-Chloro-3,4-difluoro-2-(2-fluoro-4-iodo-phenylamino)-N-(2-hydroxy-propoxy)-benzamide]",–,–,8.40,–
"CC(O)CONC(=O)c1cc(Cl)c(F)c(F)c1Nc1ccc(F)cc1F (stereo not drawn) [Example 166, 5-Chloro-2-(2,4-difluoro-phenylamino)-3,4-difluoro-N-(2-hydroxy-propoxy)-benzamide]",0,31.9,–,88.7
"CC(O)CONC(=O)c1ccc(F)c(F)c1Nc1ccc(F)cc1F (stereo not drawn) [Example 167, 2-(2,4-Difluoro-phenylamino)-3,4-difluoro-N-(2-hydroxy-propoxy)-benzamide]",–,80.5,–,89.2
"CC(O)CONC(=O)c1ccc(F)c(F)c1Nc1ccc(Cl)cc1F (stereo not drawn) [Example 168, 2-(4-Chloro-2-fluoro-phenylamino)-3,4-difluoro-N-(2-hydroxy-propoxy)-benzamide]",48.8,89.5,–,–
"CC(O)CONC(=O)c1cc(F)c(F)cc1Nc1ccc(I)cc1F (stereo not drawn) [Example 169, 4,5-Difluoro-2-(2-fluoro-4-iodo-phenylamino)-N-(2-hydroxy-propoxy)-benzamide]",–,–,7.85,–
